Data taken from patent publication US4085111A, “1H-tetrazole derivatives” (Yoshitomi Pharmaceutical Industries, Ltd., priority 1974, dated 1978).

Tests used:
[1] = test system: histamine release from the peritoneal cavity; test: Histamine release from the peritoneal cavity (dextran i.p.); assay type: in vivo, male Wistar rats; conditions: Rattus norvegicus, ip; dose required for 50% inhibition; test compound i.p., dextran 180 mg/kg i.p.; rats
Protocol: Histamine release from the peritoneal cavity:
The method used was similar to that described by Hanahoe et al. (T.H.P. Hanahoe, A. Holliman, D. Gordon and W. Wieczorek, J. Pharm. Pharmac. 24, 666 (1972)). Groups of ten male Wistar rats (200-230 g) were injected intraperitoneally with 1 ml normal saline (0.9%) containing different amounts of test compound. A half minutes later they received an intraperitoneal injection of dextran (180 mg/kg, molecular weight about 250,000) or saline as vehicle control. Five minutes later the animals were killed, the peritoneal fluid was collected and centrifuged, and the supernatant was assayed fluorophotometrically for histamine. […] The percent inhibition was calculated using the following formula: [formula] The ED50, the dose required for 50% inhibition, was calculated from the dose-responsive curve.

[2] = test system: SRS-A release from lung tissue; test: Release of slow reacting substance of anaphylaxis (SRS-A) from sensitized lung tissue; assay type: cell-based, Guinea-pigs; conditions: Cavia porcellus, sensitized guinea-pig lung tissue, egg albumen 100 μg/ml; for inhibition at 0.01 µg/mL: 0.01 μg/ml; for inhibition at 0.1 µg/mL: 0.1 μg/ml
Protocol: Release of slow reacting substance of analphylaxis (SRS-A):
Guinea-pigs were sensitized with egg albumen, which was administered as a 10% solution, 100 mg both intraperitoneally and subcutaneously. Three to four weeks later the animals were killed by a blow on the head and the heart and lungs removed from the body and cleaned of blood. The lung tissue was dissected free from the heart, trachea and major bronchioles and then finely chopped. Portions of the lung tissue in 5 ml of Tyrode solution were preincubated with each test solution (50 μl) containing a test compound for 5 minutes at 37° C, to those were added 50 μl of egg albumen (100 μg/ml in a final concentration). The incubation mixture were further incubated for 15 minutes at 37° C. After centrifugation, the supernatant was assayed for SRS-A. The activity of SRS-A was assayed on the isolated guinea-pig ileum in the presence of atropine (5 × 10^-8 g/ml) and pyribenzamine (10^-7 g/ml). The percent inhibition was calculated using the following formula: [formula]

[3] = test system: histamine release from the peritoneal cavity; conditions: dextran-induced histamine release, in this experimental method (Hanahoe et al.); cited from earlier work

Structure (SMILES) | ED50 [1] [µg/kg] | inhibition at 0.01 µg/mL [2] [%] | inhibition at 0.1 µg/mL [2] [%] | inhibition of the release of histamine [3]
O=c1c2cc(-c3nnn[nH]3)ccc2oc2ncccc12 [Compound A, 7-(5-1H-tetrazolyl)-5-oxo-5H-[1]benzopyrano[2,3-b]pyridine] | 1 | 25.2 | 35.3 | –
O=c1c2cccnc2oc2c(Cl)cc(-c3nnn[nH]3)cc12 [Compound B, 9-chloro-7-(5-1H-tetrazolyl)-5-oxo-5-H-[1]benzopyrano[2,3-b]-pyridine] | 0.25 | 19 | 22.6 | –
O=C(O)c1cc(=O)c2c(OCC(O)COc3cccc4oc(C(=O)O)cc(=O)c34)cccc2o1 [disodium cromoglycate] | – | – | – | inhibits markedly
